From patent US11226337B2, “Chemoproteomic profiling of protein electrophilic and oxidative post-translational modifications” (Zenagem, LLC, priority 2017, dated 2022)
“Also recorded” adds a separate entry of the source.

What was measured:
HEK293T cells = experiment: CellTiter-Glo luminescence cell viability assay; assay type: cell-based, human; settings: probe 1 3 mM, 1 hour, 37° C., n=4; untreated 132±2
Protocol: Working stock solutions of probes and competitors were neutralized prior to treatment and media was supplemented with 10 mM Na-HEPES (pH 7.5) to enhance the buffer capacity to ensure the pH was maintained. The phenol red pH indicator of the media confirmed that there was no substantial change in pH during the treatment. Cell viability was quantified based on ATP levels in the absence and presence of probe 1 with or without competitor probe 3 using the CellTiter-Glo luminescence assay (Promega). Trypsinized HEK293T cells were diluted in serum-free DMEM supplemented with 10 mM Na-HEPES to a final concentration of 0.8 million cells/mL. To a cell culture microplate (Greiner Bio-One No. 655098; white, 96-well, 34 mm^2 growth area per well, Clear bottom), 80,000 cells (100 μL of cell suspension) were plated per well. […] After 20 minutes at ambient temperature, luminescence was measured on a Biotech Synergy 4 plate reader. Well luminescence, in relative light units (RLU), under each condition (n=4 of each) was measured to determine cell viability according to the formula: Iuntreated, Iprobe 1, and Iprobe 1/competitor 3=(132±2, 139±2, and 134±1)×10^3 RLU. “Iuntreated” refers to the intensity of luminescence of untreated cells; and “Iprobe 1” refers to the intensity of luminescence of probe-1 treated cells.

AMD1 pyruvoyl cofactor = molecular target: T1, AMD1 pyruvoyl cofactor (Homo sapiens, UniProt P17707); experiment: in vitro labelling of purified reconstituted AMD1, LC-MS/MS; assay type: binding; settings: 50 μM AMD1, 3 mM probe 1, overnight
T1 construct: made in house; host or cells: E. coli (vector pQE30)
T1 sequence (P17707 68-334 limits assumed): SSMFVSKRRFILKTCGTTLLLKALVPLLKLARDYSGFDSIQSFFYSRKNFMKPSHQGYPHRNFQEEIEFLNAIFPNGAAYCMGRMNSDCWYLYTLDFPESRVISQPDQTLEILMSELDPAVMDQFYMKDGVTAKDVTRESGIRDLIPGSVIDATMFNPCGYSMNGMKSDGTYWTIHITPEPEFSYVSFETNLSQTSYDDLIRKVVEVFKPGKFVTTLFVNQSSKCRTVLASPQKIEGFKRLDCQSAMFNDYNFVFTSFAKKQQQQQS
T1 sequence (P17707 1-67 partner limits assumed): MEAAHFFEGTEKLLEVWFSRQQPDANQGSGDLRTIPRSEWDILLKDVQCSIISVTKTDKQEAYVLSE
Protocol: Full-length AMD1 having an additional 12 amino acids (MRGSH6GS) (SEQ ID NO: 46) appended to the N-terminal methionine residue was expressed from the bacterial vector pQE30. The appendage contains a His6 element (SEQ ID NO: 69) to permit purification of the protein by metal ion affinity chromatography on Ni-NTA agarose (Qiagen). E. coli cell cultures were grown at 37° C. in rich LB broth (35 g/L tryptone, 20 g/L yeast extract, 5 g/L NaCl, and 0.05 g/L kanamycin (pH 7.0)) to an optical density at 600 nm of 0.6-0.8. The flasks were cooled rapidly by incubation on ice for 30 minutes prior to addition of IPTG (1 mM). Following induction, cultures were grown at 15-18° C. for an additional 16-20 hours and cells were harvested by centrifugation (8,000 g, 30 min, 4° C.). The cell paste was flash-frozen in liquid N2 and stored at −80° C. A typical yield was 8-10 g of wet cell paste per liter of culture. […]
A 100 μL solution of 50 μM purified reconstituted AMD1 in PBS was incubated overnight at ambient temperature in the presence or absence of 3 mM probe 1 (pH 7). […] Peptides were eluted from the column using a 180 minute gradient from 0% to 50% Buffer B (Buffer A: 5% acetonitrile, 95% H2O, 0.1% formic acid; Buffer B: 80% acetonitrile, 20% H2O, 0.1% formic acid) and analyzed on an LTQ-Orbitrap Finnigan mass spectrometer (Thermo Scientific). […]

[1] = system: lung, brain and liver tissue; experiment: in vivo probe labelling, in-gel fluorescence of tissue proteomes; design: species or system mice; settings: i.p., four hours; soluble and membrane proteomes
Protocol: Studies were conducted to determine whether probes can be used to label proteins in vivo. Mice were injected intraperitoneally (i.p,) with hydrazine probe 2. After treatment with probes for four hours, lung, brain and liver tissue was harvested, processed and labeled with rhodamine azide as described in Example 2. Probe labelled proteins were visualized by in-gel fluorescence scanning. The results are shown FIGS. 24A and 24B.

Structure (SMILES)	Well luminescence (cell viability based on ATP levels) (HEK293T cells)	site specificity of the reaction (AMD1 pyruvoyl cofactor)	extent of reaction with the pyruvoyl group (AMD1 pyruvoyl cofactor; ambient temperature, hydrochloride)	labelling of proteins in vivo [1]
C#CCNN.Cl [probe 1, prop-2-yn-1-ylhydrazine hydrochloride]	139±2 ×10^3 RLU	reacted specifically with the N-terminal pyruvoyl group	the reaction with probe 1 was complete; also recorded: proceeded to near-completion	
C#CCCNC(=O)c1ccc(NN)cc1.Cl [probe 2, N-(but-3-yn-1-yl)-4-hydrazinylbenzamide hydrochloride]				can be used to label and profile proteins in vivo
